Read-outs that look alike come from different tables or passages of the source.
Experiments:
[1] = tested on: CoREST complex; assay: Chemoproteomic binding profiling, K562 cell extract, SAHA/ITF2357 probe matrix (Kd app); parameters: species or system human; settings: CoREST complex
[2] = tested on: NuRD complex; assay: as above; parameters: species or system human; settings: NuRD complex
[3] = molecular target: T1, non-HDAC targets (e.g. BZW2, ISOC2, aldehyde dehydrogenases) (Homo sapiens, UniProt O94788); assay: as above; settings: protein ALDH1A2; selected HDACi off-targets
T1 construct: endogenous in cells; host or cells: K562 whole cell extract
T1 sequence (O94788 1-518): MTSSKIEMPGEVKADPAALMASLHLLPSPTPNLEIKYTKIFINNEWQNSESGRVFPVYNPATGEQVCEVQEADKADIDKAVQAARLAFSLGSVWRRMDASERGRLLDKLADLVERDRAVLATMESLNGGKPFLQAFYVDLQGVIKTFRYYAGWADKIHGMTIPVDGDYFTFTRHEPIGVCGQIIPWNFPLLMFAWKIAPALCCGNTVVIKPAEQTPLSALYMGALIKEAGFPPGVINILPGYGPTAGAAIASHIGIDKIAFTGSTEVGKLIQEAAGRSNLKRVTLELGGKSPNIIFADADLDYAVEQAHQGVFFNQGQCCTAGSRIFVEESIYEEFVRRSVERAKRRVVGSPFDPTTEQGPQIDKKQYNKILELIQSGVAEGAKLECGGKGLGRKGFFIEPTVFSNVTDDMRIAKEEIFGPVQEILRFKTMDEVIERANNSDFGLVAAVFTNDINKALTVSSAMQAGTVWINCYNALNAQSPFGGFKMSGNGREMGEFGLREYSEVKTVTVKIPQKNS

[4] = molecular target: T2, non-HDAC targets (e.g. BZW2, ISOC2, aldehyde dehydrogenases) (Homo sapiens, UniProt P16152); assay: as above; settings: protein CBR1; selected HDACi off-targets
T2 construct: Kd^app CBR1; other: protein CBR1; selected HDACi off-targets
T2 sequence (P16152 1-277): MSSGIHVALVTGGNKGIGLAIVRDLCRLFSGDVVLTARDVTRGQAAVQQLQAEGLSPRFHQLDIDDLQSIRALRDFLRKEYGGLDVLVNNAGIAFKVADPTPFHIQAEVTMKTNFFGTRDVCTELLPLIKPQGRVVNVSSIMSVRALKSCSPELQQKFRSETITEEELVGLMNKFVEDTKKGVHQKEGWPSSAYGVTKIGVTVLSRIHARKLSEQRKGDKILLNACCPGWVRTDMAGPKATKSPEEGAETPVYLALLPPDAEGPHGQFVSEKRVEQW

[5] = molecular target: T3, non-HDAC targets (e.g. BZW2, ISOC2, aldehyde dehydrogenases) (Homo sapiens, UniProt Q08209); assay: as above; settings: protein PPP3CA; selected HDACi off-targets
T3 construct: Kd^app PPP3CA; other: protein PPP3CA; selected HDACi off-targets

[6] = molecular target: T4, non-HDAC targets (e.g. BZW2, ISOC2, aldehyde dehydrogenases) (Homo sapiens, UniProt Q96AB3); assay: as above; settings: protein ISOC2; selected HDACi off-targets
T4 construct: endogenous in cells; host or cells: K562 whole cell extract
T4 sequence (Q96AB3 1-205): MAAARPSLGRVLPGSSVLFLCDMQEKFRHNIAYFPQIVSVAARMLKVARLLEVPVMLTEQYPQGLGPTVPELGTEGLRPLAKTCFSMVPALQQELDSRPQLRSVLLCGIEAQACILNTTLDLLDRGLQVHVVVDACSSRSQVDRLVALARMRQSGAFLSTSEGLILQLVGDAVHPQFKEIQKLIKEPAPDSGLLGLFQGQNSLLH

[7] = molecular target: T5, non-HDAC targets (e.g. BZW2, ISOC2, aldehyde dehydrogenases) (Homo sapiens, UniProt Q9Y6E2); assay: as above; settings: protein BZW2; selected HDACi off-targets
T5 construct: endogenous in cells; host or cells: K562 whole cell extract
T5 sequence (Q9Y6E2 1-419): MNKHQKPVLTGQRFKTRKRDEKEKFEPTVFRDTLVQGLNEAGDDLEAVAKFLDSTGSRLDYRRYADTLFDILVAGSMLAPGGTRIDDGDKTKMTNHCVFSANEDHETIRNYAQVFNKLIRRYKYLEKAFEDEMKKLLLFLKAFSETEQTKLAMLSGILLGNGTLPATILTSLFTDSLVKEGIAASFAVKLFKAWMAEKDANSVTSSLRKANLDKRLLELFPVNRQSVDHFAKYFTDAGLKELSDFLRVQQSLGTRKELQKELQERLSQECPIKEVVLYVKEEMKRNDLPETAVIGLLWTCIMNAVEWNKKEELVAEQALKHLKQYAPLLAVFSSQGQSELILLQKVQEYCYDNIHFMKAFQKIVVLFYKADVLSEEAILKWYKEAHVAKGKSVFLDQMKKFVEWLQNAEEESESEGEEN

[8] = tested on: MIER1; assay: Chemoproteomic binding profiling, K562 cell extract, SAHA/ITF2357 probe matrix (Kd app), ELSA (ELM-SANT) domain protein; parameters: species or system human; settings: ELSA (ELM-SANT) domain proteins
[9] = tested on: MIER3; assay: as above; parameters: species or system human; settings: ELSA (ELM-SANT) domain proteins
[10] = tested on: RERE; assay: as above; parameters: species or system human; settings: protein RERE; ELSA (ELM-SANT) domain proteins
[11] = tested on: MIER2; assay: as above; parameters: species or system human; settings: ELSA (ELM-SANT) domain proteins
[12] = tested on: EHMT2; assay: Chemoproteomic binding profiling, K562 cell extract, SAHA/ITF2357 probe matrix (Kd app), ELSA (ELM-SANT) domain proteins group; parameters: species or system human; settings: protein EHMT2

Kd [3]	Kd [4]	Kd [5]	Kd [6]	Kd [7]	SMILES	Kd [9]	Kd [10]	other results
> 10000 nM	880 nM	1510 nM	> 10000 nM	1710 nM	O=C(/C=C/c1ccc(CN(CCO)CCc2c[nH]c3ccccc23)cc1)NO [dacinostat]	10 nM	> 10000 nM	Kd ([1]; protein GSE1, read-out: Kd^app GSE1): 10 nM; Kd ([1]; protein HMG20A, read-out: Kd^app HMG20A): 10 nM; Kd ([1]; protein HMG20B, read-out: Kd^app HMG20B): 10 nM; Kd ([1]; protein PHF21A, read-out: Kd^app PHF21A): 20 nM; Kd ([1]; protein RCOR1, read-out: Kd^app RCOR1): 10 nM; Kd ([1]; protein RCOR3, read-out: Kd^app RCOR3): 10 nM; Kd ([1]; protein ZMYM2, read-out: Kd^app ZMYM2): 10 nM; Kd ([2]; protein GATAD2A, read-out: Kd^app GATAD2A): 20 nM; Kd ([2]; protein GATAD2B, read-out: Kd^app GATAD2B): 20 nM; Kd ([2]; protein MBD3, read-out: Kd^app MBD3): 20 nM; Kd ([2]; protein MTA1, read-out: Kd^app MTA1): 20 nM; Kd ([2]; protein MTA2, read-out: Kd^app MTA2): 20 nM; Kd ([2]; protein MTA3, read-out: Kd^app MTA3): 20 nM; Kd [8]: 20 nM
> 10000 nM	8230 nM	12100 nM	> 10000 nM	> 10000 nM	Cc1[nH]c2ccccc2c1CCNCc1ccc(/C=C/C(=O)NO)cc1 [panobinostat]	–	–	–

SMILES	Kd [3]	Kd [4]	Kd [5]	Kd [6]	Kd [7]	Kd [9]	Kd [10]	other results
O=C(CCCCCN1C(=O)c2cccc3cccc(c23)C1=O)NO [scriptaid]	5380 nM	> 10000 nM	> 10000 nM	350 nM	4840 nM	320 nM	790 nM	Kd [11]: 810 nM; Kd [12]: 1300 nM
